pIC50: −log10 of the molar value. Where two headings read alike, the source gives them in different places.
Columns and labels:
[1] = molecular target: T1, IRAK1 (Homo sapiens, UniProt P51617); assay: LanthaScreen Eu Kinase Binding Assay for IRAK1, hit dose-response assay (DRC); settings: for pIC50: read-out: DRC result, IC50; for IC50: read-out: DRC result, pIC50 (converted); for DRC result, activity class: class by pIC50 value
T1 construct: purchased BPS Bioscience Inc. 40202
Excerpt: The experimental method of LanthaScreen^TM Eu Kinase Binding Assay for IRAK1 was developed based on the Invitrogen^TM IRAK1-GST LanthaScreen^TM binding assay. Purified recombinant IRAK1-His (cat. # 40202) was purchased from BPS Bioscience Inc. (San Diego, CA, USA). Kinase tracer 236 (cat. # PR9078A) was purchased from Thermo Fisher Scientific Inc. (Waltham, MA, USA). Eu-W1024-anti-6xHis antibody (cat. #AD0400) and 384-well white ProxiPlates^TM (cat. # 6008289) were purchased from Perkin Elmer, Inc. (Waltham, MA, USA). Echo-qualified 384 well COC low dead volume source microplates (cat. #001-16128) and Echo-qualified 384 well polypropylene microplates (cat. #001-14615) were purchased from Beckman Coulter Inc.(Indianapolis, IN, USA). The assay was carried out in an enclosed workcell with subdued lighting. All reagents were prepared in the assay buffer (50 mM HEPES, 10 mM MgCl 2 , 1 mM EGTA, 0.01% Brij-35, 1 mM DTT) and kept on ice. These included 2 x tracer 236 (0.2 μ M), 2 x IRAK1 /antibody solution (20 nM IRAK1-His, 4 nM Eu-W1024-anti-6xHis antibody) and 2 x antibody solution (4 nM Eu-W1024-anti-6xHis antibody). Five microliters of 2 x tracer 236 was dispensed into a 384-well white ProxiPlate^TM, followed by either 5 μ l of 2 x IRAK1/antibody solution or 5 μ l of 2 x antibody solution on a Tempest® dispenser (Formulatrix, Inc., Bedford, MA, USA). The plate was sealed on a Wasp plate sealer (KBiosciences Limited, Basildon, Essex, UK) and centrifuged at 1000 x g for 15 s on a HiG^TM automated centrifuge (BioNex Solutions Inc., San Jose, CA, USA) and incubated at room temperature for 30 min. The plate was then peeled and read on a PHERAstar® FSX (BMG LABTECH Inc., Cary, NC, USA) with a LanthaScreen^TM module at 340/615, 665 nm. The TR-FRET ratio (acceptor emission/donor emission x 10,000) was used as the readout.
A dose-response assay was conducted for each of the compound in the diversified set of 283 hits. Each compound was assayed in an 8-point curve with approximately 4-fold dilutions (subject to Echo dispense volume limits), starting at 30 μ M, and the assays were run in triplicates. The exact concentrations are 30, 7.5, 1.875, 0.469, 0.117, 0.029, 0.007, 0.002 μM . In each plate, three replicates of a staurosporine titration curve starting at 3 μ M were assayed in parallel as a reference.
The IC 50 of each dose-response curve was derived by fitting a four-parameter logistic (4PL) model, shown in Eq. 3, where the respective variables are defined as follows: • A : Minimum asymptote. Response value when x approaches infinity. • D : Maximum asymptote. Response value when x is very small or close to zero. • B : Slope factor (Hill’s slope). Steepness of the curve. • C : Inflection point. The concentration of the analyte that gives half-maximal response. 3 f(x)=A+D-A/1+x/C^B The 4PL model was fitted for each compound with data points for all three replicates all at once. As an additional quality control, 4PL regression models for all sub-micromolar compounds were manually inspected. Computed IC 50 were capped within the range of measured concentrations. In seven cases, where curve fits were erroneous and produced IC 50 values above assay sensitivity range, IC 50 values were reduced to the highest concentration used in the assay (30 μ M).

[2] = molecular target: T1, IRAK1; settings: read-out: affinity; cited from earlier work
[3] = 8-point curve from 30 μM, triplicates, 4PL fit

T1 sequence (P51617 whole entry): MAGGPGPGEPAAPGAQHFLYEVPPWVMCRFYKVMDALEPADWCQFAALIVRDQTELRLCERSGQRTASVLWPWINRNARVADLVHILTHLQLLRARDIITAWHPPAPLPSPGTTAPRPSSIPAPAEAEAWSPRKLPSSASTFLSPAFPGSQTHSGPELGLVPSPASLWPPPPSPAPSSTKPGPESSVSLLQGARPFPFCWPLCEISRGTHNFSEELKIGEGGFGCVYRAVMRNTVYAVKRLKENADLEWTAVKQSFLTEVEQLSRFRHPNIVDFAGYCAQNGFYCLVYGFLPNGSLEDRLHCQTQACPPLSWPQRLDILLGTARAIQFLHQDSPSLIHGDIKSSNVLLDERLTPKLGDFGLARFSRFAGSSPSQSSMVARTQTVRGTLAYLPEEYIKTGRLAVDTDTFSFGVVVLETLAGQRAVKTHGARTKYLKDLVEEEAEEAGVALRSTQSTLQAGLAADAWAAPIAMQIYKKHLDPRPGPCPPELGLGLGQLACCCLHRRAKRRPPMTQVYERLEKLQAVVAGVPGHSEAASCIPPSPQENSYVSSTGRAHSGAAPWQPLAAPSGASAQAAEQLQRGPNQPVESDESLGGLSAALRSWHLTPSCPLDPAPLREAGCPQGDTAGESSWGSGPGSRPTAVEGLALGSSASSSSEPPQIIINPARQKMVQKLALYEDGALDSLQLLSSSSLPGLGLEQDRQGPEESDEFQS

Structure (SMILES)	pIC50 [1, 3]	IC50 [1, 3] [nM]	DRC result, activity class [1]	DRC result, pIC50 [1, 3]	pIC50 [2]
CNc1cc2c(cn1)cc(-c1ccc(F)c(NC(=O)Nc3cc(C(C)(C)C)nn3C)c1)c(=O)n2C(C)C [A1]	7.05	91.2	nanomolar		
CC(C)(C)c1cc(NC(=O)NCc2ccc(-c3cnc4cc(-c5ccncc5)ccn34)cc2)n[nH]1 [C1]	7.00		nanomolar	7.00	
C=CC(=O)Nc1cccc(C(=O)Nc2ccc(NC(=O)c3cccc(-c4ccn[nH]4)n3)cc2)c1 [JH-X-119-01]					8.05

The next lines start with results.

pIC50 [1, 3]	IC50 [1, 3] [nM]	DRC result, activity class [1]	DRC result, pIC50 [1, 3]	Structure (SMILES)	pIC50 [2]
7.70	19.1	nanomolar		Cc1nc(Nc2ncc(F)c(-c3cc(F)c4nc(C)n(C(C)C)c4c3)n2)ccc1N1CCN(C(C)C)CC1 [B1]	
7.22	63.1	nanomolar		CCN1CCN(Cc2ccc(Nc3ncc(F)c(-c4cc(F)c5nc(C)n(C6CC6)c5c4)n3)nc2)CC1 [B2]	
7.30	52.5	nanomolar		CC(C)Cc1ccnc(NC(=O)Cc2ccc(-c3cnc4cc(-c5ccncc5)ccn34)cc2F)c1 [C2]	

Reference: PMC11566907, “Accelerated hit identification with target evaluation, deep learning and automated labs: prospective validation in IRAK1” (Journal of Cheminformatics, 2024)
